This is an account of results in the supplement of paper PMC10307832.

Assay in all cases: relative viability (nuclei count vs DMSO), 5 days (fraction); higher = more cells survive
Compound in experiment [1]: CC1=C(C(=NN1)C)CC2=C(C3=C(S2)N(C(=O)N(C3=O)C)CC(C)C)C(=O)N4C[C@@H](CO4)O + CCNC(=O)c1noc(-c2cc(C(C)C)c(O)cc2O)c1-c1ccc(CN2CCOCC2)cc1 [Luminespib] (partner 0.01 µM)
In a few lines:
(§1)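 Lung cancer cell lines were pin-tool dosed in 1536-well plates on the day after seeding, with either a lone drug or a fixed anchor-drug dose plus five library-drug doses (not always all listed) in √10 steps. Nuclei were counted on 4× images after 5 days. Relative viability is the ratio of treated-well to vehicle-well nuclei counts, with each value a median of duplicate plates.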

Compound in experiment [2]: CC1=C(C(=NN1)C)CC2=C(C3=C(S2)N(C(=O)N(C3=O)C)CC(C)C)C(=O)N4C[C@@H](CO4)O + Nc1ncn([C@H]2C[C@H](O)[C@@H](CO)O2)c(=O)n1 [Decitabine] (partner 2 µM)
A digest of the protocol:
as §1

Compound in experiment [3]: CC1=C(C(=NN1)C)CC2=C(C3=C(S2)N(C(=O)N(C3=O)C)CC(C)C)C(=O)N4C[C@@H](CO4)O + N=C(N)NC(=N)NCCc1ccccc1 [Phenformin] (partner 250 µM)
In a few lines: as §1

Compound in the experiment “IDH-C35 + Linsitinib”: Cc1ccccc1C(C(=O)NC1CCCCC1)N(C(=O)Cn1ccnc1C)c1cccc(F)c1 [IDH-C35] + C[C@]1(O)C[C@@H](c2nc(-c3ccc4ccc(-c5ccccc5)nc4c3)c3c(N)nccn32)C1 [Linsitinib] (partner 1 µM)
In a few lines:
as §1

Take NCI-H23: the relative viability was 0.242 in experiment [1] (first compound 0.0025 µM); 0.23 in experiment [1] (first compound 0.07906 µM); 0.219 in experiment [1] (first compound 0.25 µM); 0.307 in experiment [2] (first compound 0.0025 µM); 0.329 in experiment [2] (first compound 0.007906 µM); 0.289 in experiment [2] (first compound 0.025 µM). Moreover, the relative viability in experiment [2] (first compound 0.07906 µM) is 0.345; in experiment [2] (first compound 0.25 µM) it was 0.334; in experiment [3] (first compound 0.0025 µM), 0.794; in experiment [3] (first compound 0.007906 µM) it was 0.858; in experiment [3] (first compound 0.025 µM) it was 0.839; in experiment [3] (first compound 0.07906 µM), 0.804. The relative viability turned out to be 0.774 in experiment [3] (first compound 0.25 µM); 0.514 with IDH-C35 + Linsitinib (first compound 0.08 µM); 0.541 with IDH-C35 + Linsitinib (first compound 0.253 µM); 0.541 with IDH-C35 + Linsitinib (first compound 0.8 µM); 0.523 with IDH-C35 + Linsitinib (first compound 2.53 µM); 0.505 in the experiment with IDH-C35 + Linsitinib (first compound 8 µM).
Turning to LCLC-97TM1, the relative viability in experiment [1] (first compound 0.0025 µM) stood at 0.611; in experiment [1] (first compound 0.007906 µM) it was 0.774; in experiment [1] (first compound 0.025 µM), 0.889; in experiment [1] (first compound 0.07906 µM) it was 0.698; in experiment [1] (first compound 0.25 µM), 0.801; in experiment [2] (first compound 0.0025 µM) it was 0.265. Also, the relative viability was determined as 0.237 in experiment [2] (first compound 0.007906 µM); 0.219 in experiment [2] (first compound 0.025 µM); 0.242 in experiment [2] (first compound 0.07906 µM); 0.224 in experiment [2] (first compound 0.25 µM); 0.483 in experiment [3] (first compound 0.0025 µM); 0.432 in experiment [3] (first compound 0.007906 µM). Also, the relative viability in experiment [3] (first compound 0.025 µM) was determined as 0.429; in experiment [3] (first compound 0.07906 µM), 0.477; in experiment [3] (first compound 0.25 µM), 0.51; with IDH-C35 + Linsitinib (first compound 0.08 µM) it was 0.209; in the experiment with IDH-C35 + Linsitinib (first compound 0.253 µM), 0.194; with IDH-C35 + Linsitinib (first compound 0.8 µM) it was 0.179. In the experiment with IDH-C35 + Linsitinib (first compound 8 µM), the relative viability worked out at 0.193.
Turning to EPLC-272H, the relative viability in experiment [1] (first compound 0.0025 µM) is 0.738; in experiment [1] (first compound 0.007906 µM), 0.197; in experiment [1] (first compound 0.025 µM), 0.235; in experiment [1] (first compound 0.07906 µM) it was 0.498; in experiment [1] (first compound 0.25 µM) it was 0.417; in experiment [2] (first compound 0.0025 µM), 0.374. The relative viability in experiment [2] (first compound 0.007906 µM) was 0.346; in experiment [2] (first compound 0.025 µM), 0.369; in experiment [2] (first compound 0.07906 µM) it was 0.354; in experiment [2] (first compound 0.25 µM), 0.352; in experiment [3] (first compound 0.0025 µM) it was 0.362; in experiment [3] (first compound 0.007906 µM), 0.272. For the same cell line, the relative viability in experiment [3] (first compound 0.025 µM) stood at 0.281; in experiment [3] (first compound 0.07906 µM) it was 0.298; in experiment [3] (first compound 0.25 µM), 0.361; with IDH-C35 + Linsitinib (first compound 0.08 µM), 1.12; with IDH-C35 + Linsitinib (first compound 0.253 µM), 1.31; with IDH-C35 + Linsitinib (first compound 0.8 µM), 1.08. The relative viability in the experiment with IDH-C35 + Linsitinib (first compound 8 µM) turned out to be 1.25.
As to NCI-H1915, the relative viability in experiment [1] (first compound 0.0025 µM) was 0.868; in experiment [1] (first compound 0.007906 µM), 0.738; in experiment [1] (first compound 0.025 µM) it was 0.75; in experiment [1] (first compound 0.07906 µM), 0.768; in experiment [1] (first compound 0.25 µM), 0.816; in experiment [2] (first compound 0.0025 µM), 0.279. Also, the relative viability in experiment [2] (first compound 0.007906 µM) is 0.265; in experiment [2] (first compound 0.025 µM) it was 0.242; in experiment [2] (first compound 0.07906 µM), 0.258; in experiment [2] (first compound 0.25 µM) it was 0.265; in experiment [3] (first compound 0.0025 µM), 0.365; in experiment [3] (first compound 0.007906 µM) it was 0.329. Also, the relative viability stood at 0.358 in experiment [3] (first compound 0.025 µM); 0.345 in experiment [3] (first compound 0.07906 µM); 0.357 in experiment [3] (first compound 0.25 µM); 1.13 with IDH-C35 + Linsitinib (first compound 0.08 µM); 1.12 with IDH-C35 + Linsitinib (first compound 0.253 µM); 1.1 in the experiment with IDH-C35 + Linsitinib (first compound 0.8 µM). Further, the figures for the relative viability with IDH-C35 + Linsitinib (first compound 2.53 µM) and with IDH-C35 + Linsitinib (first compound 8 µM) were 1.07 and 1.09, respectively.
NCI-H2405: the relative viability in experiment [1] (first compound 0.0025 µM) turned out to be 0.778; in experiment [1] (first compound 0.007906 µM), 0.849; in experiment [1] (first compound 0.07906 µM) it was 0.706; in experiment [1] (first compound 0.25 µM) it was 0.684; in experiment [2] (first compound 0.0025 µM) it was 0.686; in experiment [2] (first compound 0.007906 µM) it was 0.746. Also, the relative viability is 0.752 in experiment [2] (first compound 0.025 µM); 0.738 in experiment [2] (first compound 0.07906 µM); 0.739 in experiment [2] (first compound 0.25 µM); 0.348 in experiment [3] (first compound 0.0025 µM); 0.286 in experiment [3] (first compound 0.007906 µM); 0.277 in experiment [3] (first compound 0.07906 µM). Besides, the relative viability came to 0.268 in experiment [3] (first compound 0.25 µM); 0.974 with IDH-C35 + Linsitinib (first compound 0.08 µM); 0.957 with IDH-C35 + Linsitinib (first compound 0.253 µM); 0.928 with IDH-C35 + Linsitinib (first compound 0.8 µM); 0.907 with IDH-C35 + Linsitinib (first compound 8 µM).
